Assay results taken from ChEMBL document CHEMBL3860084, “Allyl and prenyl ethers of mansonone G, new potential semisynthetic antibacterial agents” (2016).
≈ marks a conversion by molar mass, not a printed value.

Legend:
Staphylococcus aureus [1] = assay: Antibacterial activity against Staphylococcus aureus ATCC 25923 at 1000 uM after 24 hrs by agar well-diffusion method; type: functional; conditions: ATCC 25923, 24 h, read-out: DIZ
Streptococcus mutans [2] = assay: Antibacterial activity against Streptococcus mutans ATCC 25175 at 1000 uM after 24 hrs by agar well-diffusion method; type: functional; conditions: ATCC 25175, 24 h, read-out: DIZ
Streptococcus sobrinus [3] = assay: Antibacterial activity against Streptococcus sobrinus KCCM 11898 at 1000 uM after 24 hrs by agar well-diffusion method; type: functional; conditions: KCCM 11898, 24 h, read-out: DIZ
Cutibacterium acnes [4] = assay: Antibacterial activity against Propionibacterium acnes KCCM 41747 at 1000 uM after 24 hrs by agar well-diffusion method; type: functional; conditions: KCCM 41747, 24 h, read-out: DIZ
Salmonella typhi [5] = assay: Antibacterial activity against Salmonella typhi ATCC 422 at 1000 uM after 24 hrs by agar well-diffusion method; type: functional, Salmonella enterica subsp. enterica serovar Typhi; conditions: Salmonella enterica, ATCC 422, 24 h; read-out: DIZ
Staphylococcus aureus [6] = assay: Antibacterial activity against Staphylococcus aureus ATCC 25923 by resazurin based broth microdilution method; type: functional
Streptococcus mutans [7] = assay: Antibacterial activity against Streptococcus mutans ATCC 25175 by resazurin based broth microdilution method; type: functional
Streptococcus sobrinus [8] = assay: Antibacterial activity against Streptococcus sobrinus KCCM 11898 by resazurin based broth microdilution method; type: functional
Cutibacterium acnes [9] = assay: Antibacterial activity against Propionibacterium acnes KCCM 41747 by resazurin based broth microdilution method; type: functional
Salmonella typhi [10] = assay: Antibacterial activity against Salmonella typhi ATCC 422 by resazurin based broth microdilution method; type: functional, Salmonella enterica subsp. enterica serovar Typhi; conditions: Salmonella enterica
Staphylococcus aureus [11] = assay: Antibacterial activity against Staphylococcus aureus ATCC 25923 at 500 uM after 24 hrs by agar well-diffusion method; type: functional; conditions: ATCC 25923, 24 h, read-out: DIZ
Streptococcus mutans [12] = assay: Antibacterial activity against Streptococcus mutans ATCC 25175 at 500 uM after 24 hrs by agar well-diffusion method; type: functional; conditions: ATCC 25175, 24 h, read-out: DIZ
Streptococcus sobrinus [13] = assay: Antibacterial activity against Streptococcus sobrinus KCCM 11898 at 500 uM after 24 hrs by agar well-diffusion method; type: functional; conditions: KCCM 11898, 24 h, read-out: DIZ
Cutibacterium acnes [14] = assay: Antibacterial activity against Propionibacterium acnes KCCM 41747 at 500 uM after 24 hrs by agar well-diffusion method; type: functional; conditions: KCCM 41747, 24 h, read-out: DIZ
Salmonella typhi [15] = assay: Antibacterial activity against Salmonella typhi ATCC 422 at 500 uM after 24 hrs by agar well-diffusion method; type: functional, Salmonella enterica subsp. enterica serovar Typhi; conditions: Salmonella enterica, ATCC 422, 24 h; read-out: DIZ

COc1cc(C)c2c(c1C(C)C)C=C(C)C(=O)C2=O
zone of inhibition at 1000 µM (Staphylococcus aureus [1]): 15.3 mm
zone of inhibition at 1000 µM (Streptococcus mutans [2]): 11.3 mm
zone of inhibition at 1000 µM (Streptococcus sobrinus [3]): 10.7 mm
zone of inhibition at 1000 µM (Cutibacterium acnes [4]): 13.2 mm
zone of inhibition at 1000 µM (Salmonella typhi [5]): 10.7 mm

C=CCOc1cc(C)c2c(c1C(C)C)C=C(C)C(=O)C2=O
zone of inhibition at 1000 µM (Staphylococcus aureus [1]): 23 mm
zone of inhibition at 1000 µM (Streptococcus mutans [2]): 17.3 mm
zone of inhibition at 1000 µM (Streptococcus sobrinus [3]): 16 mm
zone of inhibition at 1000 µM (Cutibacterium acnes [4]): 14.8 mm
zone of inhibition at 1000 µM (Salmonella typhi [5]): 14.5 mm
MIC (Staphylococcus aureus [6]): 0.975 µM (≈ 0.277 µg/mL)
MIC (Streptococcus mutans [7]): 31.2 µM (≈ 8.89 µg/mL)
MIC (Streptococcus sobrinus [8]): 15.6 µM (≈ 4.44 µg/mL)
MIC (Cutibacterium acnes [9]): 31.2 µM (≈ 8.89 µg/mL)
MIC (Salmonella typhi [10]): 62.5 µM (≈ 17.8 µg/mL)

CCCCCCCC(=O)Oc1cc(C)c2c(c1C(C)C)C=C(C)C(=O)C2=O
zone of inhibition at 1000 µM (Staphylococcus aureus [1]): 8.7 mm
zone of inhibition at 1000 µM (Streptococcus mutans [2]): 10.3 mm
zone of inhibition at 1000 µM (Streptococcus sobrinus [3]): 11.3 mm
zone of inhibition at 1000 µM (Cutibacterium acnes [4]): 11.5 mm
zone of inhibition at 1000 µM (Salmonella typhi [5]): 9.6 mm

CC1=C2OCC(C)c3c(O)cc(C)c(c32)C(=O)C1=O (stereo not given)
zone of inhibition at 1000 µM (Staphylococcus aureus [1]): 12 mm
zone of inhibition at 1000 µM (Streptococcus mutans [2]): 10.3 mm
zone of inhibition at 1000 µM (Streptococcus sobrinus [3]): 8.3 mm
zone of inhibition at 1000 µM (Cutibacterium acnes [4]): 11.9 mm
zone of inhibition at 1000 µM (Salmonella typhi [5]): 11 mm
MIC (Staphylococcus aureus [6]): 250 µM (≈ 64.6 µg/mL)
MIC (Streptococcus mutans [7]): 62.5 µM (≈ 16.1 µg/mL)
MIC (Streptococcus sobrinus [8]): 62.5 µM (≈ 16.1 µg/mL)
MIC (Cutibacterium acnes [9]): 125 µM (≈ 32.3 µg/mL)
MIC (Salmonella typhi [10]): 31.2 µM (≈ 8.07 µg/mL)

CCCC(=O)Oc1cc(C)c2c(c1C(C)C)C=C(C)C(=O)C2=O
zone of inhibition at 1000 µM (Staphylococcus aureus [1]): 18 mm
zone of inhibition at 1000 µM (Streptococcus mutans [2]): 12.7 mm
zone of inhibition at 1000 µM (Streptococcus sobrinus [3]): 13.7 mm
zone of inhibition at 1000 µM (Cutibacterium acnes [4]): 13 mm
zone of inhibition at 1000 µM (Salmonella typhi [5]): 10.7 mm
MIC (Staphylococcus aureus [6]): 62.5 µM (≈ 19.6 µg/mL)

CCOc1cc(C)c2c(c1C(C)C)C=C(C)C(=O)C2=O
zone of inhibition at 1000 µM (Staphylococcus aureus [1]): 16 mm
zone of inhibition at 1000 µM (Streptococcus mutans [2]): 18 mm
zone of inhibition at 1000 µM (Streptococcus sobrinus [3]): 14 mm
zone of inhibition at 1000 µM (Cutibacterium acnes [4]): 13.3 mm
zone of inhibition at 1000 µM (Salmonella typhi [5]): 10.8 mm
MIC (Streptococcus mutans [7]): 62.5 µM (≈ 17 µg/mL)
MIC (Streptococcus sobrinus [8]): 31.2 µM (≈ 8.51 µg/mL)
MIC (Cutibacterium acnes [9]): 62.5 µM (≈ 17 µg/mL)

CC(C)=CCOc1cc(C)c2c(c1C(C)C)C=C(C)C(=O)C2=O
zone of inhibition at 1000 µM (Staphylococcus aureus [1]): 23.7 mm
zone of inhibition at 1000 µM (Streptococcus mutans [2]): 17.7 mm
zone of inhibition at 1000 µM (Streptococcus sobrinus [3]): 16.7 mm
zone of inhibition at 1000 µM (Cutibacterium acnes [4]): 15 mm
zone of inhibition at 1000 µM (Salmonella typhi [5]): 16.3 mm
MIC (Staphylococcus aureus [6]): 0.975 µM (≈ 0.305 µg/mL)
MIC (Streptococcus mutans [7]): 31.2 µM (≈ 9.76 µg/mL)
MIC (Streptococcus sobrinus [8]): 31.2 µM (≈ 9.76 µg/mL)
MIC (Cutibacterium acnes [9]): 31.2 µM (≈ 9.76 µg/mL)
MIC (Salmonella typhi [10]): 62.5 µM (≈ 19.5 µg/mL)

CCCCCCCCOc1cc(C)c2c(c1C(C)C)C=C(C)C(=O)C2=O
zone of inhibition at 1000 µM (Staphylococcus aureus [1]): 20 mm
zone of inhibition at 1000 µM (Streptococcus mutans [2]): 20 mm
zone of inhibition at 1000 µM (Streptococcus sobrinus [3]): 15.7 mm
zone of inhibition at 1000 µM (Cutibacterium acnes [4]): 14.6 mm
zone of inhibition at 1000 µM (Salmonella typhi [5]): 16.3 mm
MIC (Staphylococcus aureus [6]): 15.6 µM (≈ 5.56 µg/mL)
MIC (Streptococcus mutans [7]): 31.2 µM (≈ 11.1 µg/mL)
MIC (Streptococcus sobrinus [8]): 31.2 µM (≈ 11.1 µg/mL)
MIC (Cutibacterium acnes [9]): 31.2 µM (≈ 11.1 µg/mL)
MIC (Salmonella typhi [10]): 31.2 µM (≈ 11.1 µg/mL)

CCCCCCCCCCCCOc1cc(C)c2c(c1C(C)C)C=C(C)C(=O)C2=O
zone of inhibition at 1000 µM (Staphylococcus aureus [1]): 9 mm
zone of inhibition at 1000 µM (Streptococcus mutans [2]): 9 mm
zone of inhibition at 1000 µM (Streptococcus sobrinus [3]): 8 mm
zone of inhibition at 1000 µM (Cutibacterium acnes [4]): 11.9 mm
zone of inhibition at 1000 µM (Salmonella typhi [5]): 11.5 mm

CCCCCCCCCC(=O)Oc1cc(C)c2c(c1C(C)C)C=C(C)C(=O)C2=O
zone of inhibition at 1000 µM (Staphylococcus aureus [1]): 7 mm
zone of inhibition at 1000 µM (Streptococcus mutans [2]): 9.7 mm
zone of inhibition at 1000 µM (Streptococcus sobrinus [3]): 10.7 mm
zone of inhibition at 1000 µM (Cutibacterium acnes [4]): 11.4 mm
zone of inhibition at 1000 µM (Salmonella typhi [5]): 8.2 mm

CCCCCC(=O)Oc1cc(C)c2c(c1C(C)C)C=C(C)C(=O)C2=O
zone of inhibition at 1000 µM (Staphylococcus aureus [1]): 14.7 mm
zone of inhibition at 1000 µM (Streptococcus mutans [2]): 12 mm
zone of inhibition at 1000 µM (Streptococcus sobrinus [3]): 12.7 mm
zone of inhibition at 1000 µM (Cutibacterium acnes [4]): 11.6 mm
zone of inhibition at 1000 µM (Salmonella typhi [5]): 9.7 mm

CC(C)=CCC/C(C)=C/COc1cc(C)c2c(c1C(C)C)C=C(C)C(=O)C2=O
zone of inhibition at 1000 µM (Staphylococcus aureus [1]): 14 mm
zone of inhibition at 1000 µM (Streptococcus mutans [2]): 16.2 mm
zone of inhibition at 1000 µM (Streptococcus sobrinus [3]): 11.5 mm
zone of inhibition at 1000 µM (Cutibacterium acnes [4]): 11.1 mm
zone of inhibition at 1000 µM (Salmonella typhi [5]): 14 mm
MIC (Salmonella typhi [10]): 125 µM (≈ 47.6 µg/mL)

CCCCOc1cc(C)c2c(c1C(C)C)C=C(C)C(=O)C2=O
zone of inhibition at 1000 µM (Staphylococcus aureus [1]): 18 mm
zone of inhibition at 1000 µM (Streptococcus mutans [2]): 18.3 mm
zone of inhibition at 1000 µM (Streptococcus sobrinus [3]): 15.5 mm
zone of inhibition at 1000 µM (Cutibacterium acnes [4]): 13.6 mm
zone of inhibition at 1000 µM (Salmonella typhi [5]): 12 mm
MIC (Staphylococcus aureus [6]): 15.6 µM (≈ 4.69 µg/mL)
MIC (Streptococcus mutans [7]): 7.8 µM (≈ 2.34 µg/mL)
MIC (Streptococcus sobrinus [8]): 125 µM (≈ 37.5 µg/mL)
MIC (Cutibacterium acnes [9]): 15.6 µM (≈ 4.69 µg/mL)
MIC (Salmonella typhi [10]): 3.9 µM (≈ 1.17 µg/mL)

CC1=Cc2c(C(C)C)ccc(C)c2C(=O)C1=O
zone of inhibition at 1000 µM (Staphylococcus aureus [1]): 12.7 mm
zone of inhibition at 1000 µM (Streptococcus mutans [2]): 13.7 mm
zone of inhibition at 1000 µM (Streptococcus sobrinus [3]): 9.3 mm
zone of inhibition at 1000 µM (Cutibacterium acnes [4]): 13.3 mm
zone of inhibition at 1000 µM (Salmonella typhi [5]): 11.3 mm
MIC (Staphylococcus aureus [6]): 62.5 µM (≈ 14.3 µg/mL)
MIC (Streptococcus mutans [7]): 15.6 µM (≈ 3.56 µg/mL)
MIC (Streptococcus sobrinus [8]): 31.2 µM (≈ 7.13 µg/mL)
MIC (Cutibacterium acnes [9]): 62.5 µM (≈ 14.3 µg/mL)
MIC (Salmonella typhi [10]): 31.2 µM (≈ 7.13 µg/mL)

O=C(N[C@H](CO)[C@H](O)c1ccc([N+](=O)[O-])cc1)C(Cl)Cl [CHLORAMPHENICOL]
zone of inhibition at 500 µM (Staphylococcus aureus [11]): 20.7 mm
zone of inhibition at 500 µM (Streptococcus mutans [12]): 25.7 mm
zone of inhibition at 500 µM (Streptococcus sobrinus [13]): 25.3 mm
zone of inhibition at 500 µM (Cutibacterium acnes [14]): 30 mm
zone of inhibition at 500 µM (Salmonella typhi [15]): 24.8 mm

CC1=C2OCC(C)c3ccc(C)c(c32)C(=O)C1=O (stereo not given) [MANSONONE E]
zone of inhibition at 1000 µM (Staphylococcus aureus [1]): 19.7 mm
zone of inhibition at 1000 µM (Streptococcus mutans [2]): 20.3 mm
zone of inhibition at 1000 µM (Streptococcus sobrinus [3]): 16.7 mm
zone of inhibition at 1000 µM (Cutibacterium acnes [4]): 13.5 mm
zone of inhibition at 1000 µM (Salmonella typhi [5]): 11.6 mm
MIC (Staphylococcus aureus [6]): 31.2 µM (≈ 7.57 µg/mL)
MIC (Streptococcus mutans [7]): 3.9 µM (≈ 0.945 µg/mL)
MIC (Streptococcus sobrinus [8]): 15.6 µM (≈ 3.78 µg/mL)
MIC (Cutibacterium acnes [9]): 31.2 µM (≈ 7.57 µg/mL)
MIC (Salmonella typhi [10]): 15.6 µM (≈ 3.78 µg/mL)

CC1=Cc2c(c(C)cc(O)c2C(C)C)C(=O)C1=O [MANSONONE G]
zone of inhibition at 1000 µM (Staphylococcus aureus [1]): 13.7 mm
zone of inhibition at 1000 µM (Streptococcus mutans [2]): 14.7 mm
zone of inhibition at 1000 µM (Streptococcus sobrinus [3]): 10 mm
zone of inhibition at 1000 µM (Cutibacterium acnes [4]): 15.6 mm
zone of inhibition at 1000 µM (Salmonella typhi [5]): 11.9 mm
MIC (Staphylococcus aureus [6]): 62.5 µM (≈ 15.3 µg/mL)
MIC (Streptococcus mutans [7]): 31.2 µM (≈ 7.63 µg/mL)
MIC (Streptococcus sobrinus [8]): 31.2 µM (≈ 7.63 µg/mL)
MIC (Cutibacterium acnes [9]): 31.2 µM (≈ 7.63 µg/mL)
MIC (Salmonella typhi [10]): 15.6 µM (≈ 3.81 µg/mL)
